Assay results from ChEMBL document CHEMBL5584255, “Synthesis and antibacterial medicinal evaluation of carbothioamido hydrazonyl thiazolylquinolone with multitargeting antimicrobial potential to combat increasingly global resistance” (Eur J Med Chem, 2024).
Converted amounts (≈) assume the structure as drawn. The source made the active and inactive calls. The calls are words filed in the database; no cut-off is given here.

What was measured:
Staphylococcus aureus [1] = assay: Antibacterial activity against Staphylococcus aureus ATCC 25923 by microbroth dilution method; assay type: functional
Staphylococcus aureus [2] = assay: Antibacterial activity against Staphylococcus aureus ATCC 29213 by microbroth dilution method; assay type: functional
Staphylococcus aureus [3] = assay: Antibacterial activity against drug-resistant Staphylococcus aureus by microbroth dilution method; assay type: functional
Staphylococcus aureus [4] = assay: Antibacterial activity against methicillin-resistant Staphylococcus aureus N315 by microbroth dilution method; assay type: functional
Enterococcus faecalis = assay: Antibacterial activity against drug-resistant Enterococcus faecalis by microbroth dilution method; assay type: functional
Staphylococcus aureus [5] = assay: Potency index, ratio of norfloxacin MIC to test compound MIC for drug-resistant Staphylococcus aureus by microbroth dilution method; assay type: functional
Candida albicans [6] = assay: Antifungal activity against Candida albicans ATCC 90023; assay type: functional
Candida albicans [7] = assay: Antifungal activity against drug-resistant Candida albicans; assay type: functional
Candida parapsilosis = assay: Antifungal activity against Candida parapsilosis ATCC 22019; assay type: functional; details: Lodderomyces parapsilosis
Candida tropicalis = assay: Antifungal activity against drug-resistant Candida tropicalis; assay type: functional
Aspergillus fumigatus = assay: Antifungal activity against Aspergillus fumigatus; assay type: functional
Escherichia coli [8] = assay: Antibacterial activity against Escherichia coli ATCC 25922 by microbroth dilution method; assay type: functional
Pseudomonas aeruginosa [9] = assay: Antibacterial activity against Pseudomonas aeruginosa ATCC 27853 by microbroth dilution method; assay type: functional
Escherichia coli [10] = assay: Antibacterial activity against drug-resistant Escherichia coli by microbroth dilution method; assay type: functional
Pseudomonas aeruginosa [11] = assay: Antibacterial activity against Pseudomonas aeruginosa by microbroth dilution method; assay type: functional
Klebsiella pneumoniae = assay: Antibacterial activity against Klebsiella pneumoniae by microbroth dilution method; assay type: functional
Acinetobacter baumannii = assay: Antibacterial activity against Acinetobacter baumannii by microbroth dilution method; assay type: functional
[12] = Hemolytic activity in human RBC assessed as hemolysis ratio at 0.0024 mM measured after 1 hr relative to control; assay type: toxicity, cell-based, Erythrocyte; details: red blood cells (erythrocytes)
[13] = Hemolytic activity in human RBC assessed as hemolysis ratio at 0.0047 mM measured after 1 hr relative to control; assay type: toxicity, cell-based, Erythrocyte; details: red blood cells (erythrocytes)
[14] = Hemolytic activity in human RBC assessed as hemolysis ratio at 0.0094 mM measured after 1 hr relative to control; assay type: toxicity, cell-based, Erythrocyte; details: red blood cells (erythrocytes)
[15] = Hemolytic activity in human RBC assessed as hemolysis ratio at 0.0189 mM measured after 1 hr relative to control; assay type: toxicity, cell-based, Erythrocyte; details: red blood cells (erythrocytes)
[16] = Cytotoxicity against human A549 cells assessed as cell viability up to 0.3019 mM measured after 72 hrs by MTT assay relative to control; assay type: toxicity, cell-based; details: read-out: Activity
[17] = Cytotoxicity against mouse L929 cells assessed as cell viability up to 0.3019 mM measured after 72 hrs by MTT assay relative to control; assay type: toxicity, cell-based; details: read-out: Activity
[18] = Toxicity in mouse assessed as change in body weight at 5 to 10 mg/kg administered for 10 days; assay type: organism-based; details: in vivo, 240 h, dose 5-10 mg/kg, time 10 day
[19] = Toxicity in mouse assessed as change in liver morphology at 5 to 10 mg/kg administered for 10 days by hematoxylin and eosin staining based assay; assay type: organism-based; details: in vivo, 240 h, dose 5-10 mg/kg, time 10 day
[20] = Toxicity in mouse assessed as change in spleen morphology at 5 to 10 mg/kg administered for 10 days by hematoxylin and eosin staining based assay; assay type: organism-based; details: in vivo, 240 h, dose 5-10 mg/kg, time 10 day
[21] = Toxicity in mouse assessed as change in kidney morphology at 5 to 10 mg/kg administered for 10 days by hematoxylin and eosin staining based assay; assay type: organism-based; details: in vivo, 240 h, dose 5-10 mg/kg, time 10 day
Staphylococcus aureus [22] = assay: Induction of resistance development in Staphylococcus aureus measured after 16 passages; assay type: functional
DNA [23] = assay: Binding affinity to drug-resistant Staphylococcus aureus DNA assessed as hypochromic effect at 7.86 x 10^-5 mol/L by UV-visible absorption spectra analysis; assay type: nucleic-acid assay; details: dose 7.86 10^-5mol/L
DNA [24] = assay: Binding affinity to drug-resistant Staphylococcus aureus DNA by UV-visible absorption spectra analysis; assay type: nucleic-acid assay
DNA [25] = assay: Displacement of neutral red from drug-resistant Staphylococcus aureus DNA assessed as DNA intercalation by UV-visible absorption spectra analysis; assay type: nucleic-acid assay; details: dose <= 1.5 10^-5mol/L
DNA [26] = assay: Displacement of neutral red from drug-resistant Staphylococcus aureus DNA assessed as DNA intercalation by measuring blue shift up to 1.5 x 10^-5 mol/L by UV-visible absorption spectra analysis (reference value: 460 nm); assay type: nucleic-acid assay; details: dose <= 1.5 10^-5mol/L
Topoisomerase IV = Topoisomerase IV (Staphylococcus aureus, UniProt P0C1S7+P0C1U9); assay: Inhibition of drug-resistant Staphylococcus aureus topoisomerase 4; assay type: protein-complex assay
Cell membrane = assay: Induction of membrane permeabilization in drug-resistant Staphylococcus aureus at 0.0283 mM measured within 60 mins by propidium iodide staining based fluorescence assay

Sequence of Topoisomerase IV (P0C1U9 whole entry): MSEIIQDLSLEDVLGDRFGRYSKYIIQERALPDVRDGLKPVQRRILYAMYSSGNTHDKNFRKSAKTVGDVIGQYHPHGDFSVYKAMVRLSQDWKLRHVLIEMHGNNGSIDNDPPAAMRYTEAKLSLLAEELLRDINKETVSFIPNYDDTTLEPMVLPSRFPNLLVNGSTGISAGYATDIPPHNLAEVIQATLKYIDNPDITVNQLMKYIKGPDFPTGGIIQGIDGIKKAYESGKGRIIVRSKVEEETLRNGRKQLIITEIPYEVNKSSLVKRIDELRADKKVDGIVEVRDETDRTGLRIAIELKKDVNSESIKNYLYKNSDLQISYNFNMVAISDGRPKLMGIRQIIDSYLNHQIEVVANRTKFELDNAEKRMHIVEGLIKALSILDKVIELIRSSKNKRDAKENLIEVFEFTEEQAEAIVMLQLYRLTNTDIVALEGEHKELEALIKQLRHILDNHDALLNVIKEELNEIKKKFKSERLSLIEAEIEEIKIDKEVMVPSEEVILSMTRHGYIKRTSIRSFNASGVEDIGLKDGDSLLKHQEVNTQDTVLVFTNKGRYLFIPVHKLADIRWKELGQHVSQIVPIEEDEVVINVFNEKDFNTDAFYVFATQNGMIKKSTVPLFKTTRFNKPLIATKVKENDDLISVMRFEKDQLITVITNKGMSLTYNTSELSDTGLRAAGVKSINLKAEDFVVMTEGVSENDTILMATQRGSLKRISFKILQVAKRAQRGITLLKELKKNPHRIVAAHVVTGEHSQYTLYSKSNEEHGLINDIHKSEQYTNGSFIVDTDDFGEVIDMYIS
Sequence of Topoisomerase IV (P0C1S7 whole entry): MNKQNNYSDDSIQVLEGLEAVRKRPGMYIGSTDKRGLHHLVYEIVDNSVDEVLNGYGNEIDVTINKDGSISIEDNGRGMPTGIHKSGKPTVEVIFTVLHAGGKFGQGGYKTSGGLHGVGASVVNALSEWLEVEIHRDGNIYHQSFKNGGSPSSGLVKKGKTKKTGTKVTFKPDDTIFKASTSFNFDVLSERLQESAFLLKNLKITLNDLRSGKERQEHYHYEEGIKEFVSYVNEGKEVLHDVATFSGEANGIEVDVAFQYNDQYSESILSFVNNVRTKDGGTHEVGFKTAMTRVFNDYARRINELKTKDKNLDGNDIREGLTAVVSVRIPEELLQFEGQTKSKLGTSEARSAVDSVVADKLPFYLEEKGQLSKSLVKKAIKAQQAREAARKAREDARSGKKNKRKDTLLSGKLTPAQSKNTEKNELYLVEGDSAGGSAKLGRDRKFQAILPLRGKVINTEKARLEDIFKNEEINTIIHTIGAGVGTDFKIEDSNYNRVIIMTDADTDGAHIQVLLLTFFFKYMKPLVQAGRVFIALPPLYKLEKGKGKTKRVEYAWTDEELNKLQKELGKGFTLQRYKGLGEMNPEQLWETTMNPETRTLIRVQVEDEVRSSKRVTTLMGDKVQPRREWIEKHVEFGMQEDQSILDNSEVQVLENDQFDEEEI

## C/C(Cn1cc(-c2csc(N)n2)c(=O)c2cc(F)c(Cl)cc21)=N\NC(N)=S
Staphylococcus aureus [1]
  MIC: 38 µM (≈ 16.1 µg/mL)
Staphylococcus aureus [2]
  MIC: 5 µM (≈ 2.12 µg/mL)
Staphylococcus aureus [3]
  MIC: 5 µM (≈ 2.12 µg/mL)
Staphylococcus aureus [4]
  MIC: 38 µM (≈ 16.1 µg/mL)
Enterococcus faecalis
  MIC: 302 µM (≈ 128 µg/mL)
Staphylococcus aureus [5]
  Ratio: 5
Candida albicans [6]
  MIC: 19 µM (≈ 8.07 µg/mL)
Candida albicans [7]
  MIC: 19 µM (≈ 8.07 µg/mL)
Candida parapsilosis
  MIC: 5 µM (≈ 2.12 µg/mL)
Candida tropicalis
  MIC: 151 µM (≈ 64.2 µg/mL)
Aspergillus fumigatus
  MIC: 151 µM (≈ 64.2 µg/mL)
Escherichia coli [8]
  MIC: 19 µM (≈ 8.07 µg/mL)
Pseudomonas aeruginosa [9]
  MIC: 19 µM (≈ 8.07 µg/mL)
Escherichia coli [10]
  MIC: 151 µM (≈ 64.2 µg/mL)
Pseudomonas aeruginosa [11]
  MIC: 76 µM (≈ 32.3 µg/mL)
Klebsiella pneumoniae
  MIC: 302 µM (≈ 128 µg/mL)
Acinetobacter baumannii
  MIC: 151 µM (≈ 64.2 µg/mL)
[12]
  hemolysis at 1 h, 2.4 µM: 0.472%
[13]
  hemolysis at 1 h, 4.7 µM: 1.07%
[14]
  hemolysis at 1 h, 9.4 µM: 1.25%
[15]
  hemolysis at 1 h, 18.9 µM: 2.21%
[16]
  viability at 72 h, up to 301.9 µM: > 75%
[17]
  viability at 72 h, up to 301.9 µM: > 75%
[18]
  Activity: Toxic
[19]
  Activity: Non-Toxic
[20]
  Activity: Non-Toxic
[21]
  Activity: Non-Toxic
Staphylococcus aureus [22]
  Activity: Active
DNA [23]
  Activity: Active
DNA [24]
  K: 6.32 10^4L/mol
DNA [25]
  Activity: Dose-Dependent Effect
DNA [26]
  Activity: 420 nm
Topoisomerase IV
  IC50: 10.9 µM
Cell membrane
  Activity: Active
